From patent US20150218252A1, “SELF-ASSEMBLING PEPTIDES, PEPTIDE NANOSTRUCTURES AND USES THEREOF” (President and Fellows of Harvard College, priority 2012, published 2015)
Blank lines part the entries; values can stand above or below the molecule they belong to. Residues, ends and D or L forms follow the SMILES beside them.

Key:
[1] = Stability of self-assembled peptide nanoparticles determined by DLS; format: physicochemical; settings: for particle stability / time particles stable before disaggregation: DLS; for time particles stable before disaggregation: formed in cold deionized water; for particle stability compared to FF and YF constructs: function of residue at X4, data not shown
Protocol: (§1) The self-assembled peptide nanoparticles formed (e.g., from FF or YF peptides) in cold water (cold deionized water) as shown in Example 2 were stable for about 2 hours before they eventually disaggregated as determined by DLS. To increase the stability of FF and YF, a solvent injection protocol was used. That is, the peptide constructs were dissolved in an organic solvent (e.g., but not limited to, DMSO, acetone, ethanol, dioxane, acetonitrile, methanol, and THF) at ˜150 mg/ml and a fixed volume was then injected in cold saline solution (e.g., but not limited to, ˜0.9% NaCl) while stirring. Different concentrations and/or types of salts could be used to prepare the saline solution, depending on the solubility of the peptide constructs in the respective solution. In some embodiments, any buffer solution such as PBS, acetate, succinate and citrate buffer could be used instead. The resulting particles size varied with peptide concentration from about 5 mg/ml to about 50 mg/ml with low polydispersities (FIGS. 4A-4B). By addition of 0.9% NaCl in the cold solution, the stability of the particles was increased from about 2 h to about 24 h as determined by DLS. […] Thus, in one embodiment, the average size of the nanoparticles can be controlled by simply varying the temperature of the formulation buffere, e.g., at room temperature or under cold ˜2-4° C. conditions.
In some embodiments, the nanoparticles can be formed by a process, which comprises dissolving an isolated peptide described herein (e.g., example peptides shown in Tables 1-2) in organic solvents such as DMSO at high concentration (e.g., about 400 mg/mL) and injecting a fixed volume of the dissolved peptides in cold saline (e.g., ˜0.9% sodium chloride solution) while stirring. The cold precipitation method (e.g., using a cold saline medium) can more efficiently induce peptide self-assembly. In some embodiments, the cold precipitation method (e.g., using a cold saline medium) can improve particle stability, e.g., from about 2 hours (e.g., when particles were formed by simply mixing the isolated peptides at a specified temperature) to about 24 hours (where the particles were formed by cold saline precipitation method described herein).
To further improve stability of nanoparticles, stability of the resulting particles was investigated as a function of amino acid residue at the X4 position as indicated in Table 1 (entry 3-7) and X4 position as indicated in FIG. 1. […] For example, as shown in FIG. 4E and FIG. 5, the particles self-assembled from the YF peptides or Y peptides can be stable for at least about 120 hours or longer when formed in the formulation buffer (e.g., ˜0.9% NaCl), e.g., using the cold precipitation method described earlier. Without wishing to be bound by theory, this increase in stability is likely, in part, due to the tyrosine residue at position X4 that can be stabilized by the free amine at the N-terminus.

[2] = Cell viability (CellTiter-Blue) of cells cultured with peptides / peptide nanoparticles; format: cell-based; settings: mouse, murine breast cancer cells (4T1 and M6 cells); after at least about 24 hours or longer in culture; data not shown; read-out: viable cells
Protocol: The viability of cells incubated with various concentrations of peptide constructs and/or resulting peptide nanoparticles were evaluated.
To assess effects of the peptides and/or peptide nanostructures described herein on cell viability, cells were grown to confluence in gelatin 96-well plates, following which they were either left untreated or treated with blank or one or more embodiments of the peptide nanoparticles (˜25 mg/ml) for about 18 hours. CellTiter-Blue® reagent was then added to each well and, following 4 hour incubation at ˜37° C., the fluorescence signal was measured using a fluorescence multiwell plate reader (Victor3™, PerkinElmer, Mass., USA). All fluorescent intensity measurements were then normalized with respect to the untreated 4T1 mouse mammary carcinoma cells.

[3] = Dynamic light scattering (DLS) size distribution of self-assembled peptide nanoparticles; format: physicochemical; settings: for average hydrodynamic diameter / polydispersity index (PDI): DLS
Description: Self-assembling peptides (e.g., FF and YF peptides as shown in Table 1 and FIG. 1, each with a sequence of 10 amino acids in length) were each prepared by FMOC solid-phase peptide synthesis, for example, on Wang resin and cleaved from the resin with a solution mixture of trifluoroacetic acid/triisopropylsilane/water in a volume ratio of […]. The synthesized peptides were then purified by reversed phase HPLC. These peptide constructs were selected to represent bulky aliphatic and aromatic amino acid residues. […] The peptide concentration of the resulting mixture was about 2.5 mg/mL to about 100 mg/mL. The mixture was stirred at about 200 rpm to about 300 rpm for about 5 mins. The stirring speed can be varied to control size homogeneity. […] Accordingly, the size of the nanostructures can be, at least in part, controlled by the sequence of the amino acid construct.
as §1, with “That is, the peptide constructs were dissolved in an organic solvent (e.g., but not limited to, DMSO, acetone, ethanol, dioxane, acetonitrile, methanol, and THF) at ˜150 mg/ml and a fixed volume was then injected in cold saline solution (e.g., but not limited to, ˜0.9% NaCl) while stirring.” left out
Each peptide was dissolved in distilled deionized water at varying concentrations, which can, in part, control particle size. Mixtures of ˜80 mg/mL, ˜50 mg/mL, and ˜20 mg/mL peptide concentration were each stirred vigorously (e.g., using a magnetic stirrer) for about 10 mins at room temperature or at about 4° C. Nanoparticles were measured, e.g., by dynamic light scattering (DLS), to be in the range from about 50 nm to about 2 μm.
A zeta particle size analyzer (Malvern instruments, UK) operating with a HeNe laser, and a 173° back scattering detector was used to determine the size distribution of the nanoparticles. Samples were prepared at 80 mg/mL, 50 mg/mL, and 20 mg/mL in water and measured directly by dynamic light scattering measurement (n=3 per condition). Malvern instrument software or Microsoft Excel was used to analyze the acquired data.

[4] = Encapsulation of hydrophobic (Nile Red) and hydrophilic (Calcein) dyes in peptide nanoparticles; format: physicochemical; settings: YF ~25 mg/mL in cold saline
Protocol: Nile Red (NR) a hydrophobic dye and Calcein, hydrophilic dyes were used as model agents for hydrophobic and hydrophilic drugs or molecules, respectively. For example, YF was dissolved in DMSO to make a stock concentration of about 380 mg/mL. Stock solutions of Nile red and Calcein dyes were each prepared in DMSO at about 3 mg/ml and about 20 mg/mL, respectively. A mixture of YF (about 380 mg/ml) and at least one model agent (e.g., Nile red (0.28 mg/mL) and/or Calcein (1.8 mg/mL)) was added to a formulation buffer, e.g., cold saline (e.g., about 0.3 mL) and mixed, e.g., by manual pipetting. The final ratios of peptide to dyes were ˜25 mg/ml to ˜0.02 mg/ml (YF:NR) and ˜25 mg/mL to ˜0.124 mg/mL (YF:calcein). In some embodiments, about 20-30% of each dye was encapsulated within self-assembling YF nanoparticles.
The peptide nanostructures (e.g., peptide nanoparticles (NP)) were visualized by fluorescence microscopy using the hydrophobic dye, Nile Red, which has a strong emission at […] when present in a lipid-rich environment and excited at ˜485 nm, or the hydrophilic dyes, calcein (excitation/emission 495 nm/515 nm) and FITC-Dextran (excitation/emission 495 nm/521 nm). […] An aliquot of ˜10 μL solution was then added to a glass cover slip for visualization using fluorescence microscopy (TIRF DM1600).

[5] = Biodistribution of Alexa 750-loaded nanoparticles after tail vein injection; format: in vivo; settings: mice
Protocol: FIG. 11 is a line graph showing biodistribution of YF nanoparticles in mice within 2 hours after injection. An imaging dye (e.g., Alexa 750 dye) was encapsulated in the YF nanoparticles and administered to the mice by tail vein injection.
Chemical and physical properties of the resulting nanoparticles, including size, surface charge, and surface chemistry, are important factors that determine their pharmacodynamics and biodistribution, which define their efficacy to deliver an agent and toxicity. Accordingly, it was next sought to determine tissue distribution of these resulting nanoparticles. Specifically, Alexa 750 dye was encapsulated in YF nanoparticles and administered to mice by tail vein injection. At intervals of 0.5, 1.0, and 2.0 hours, the animals were euthanized, then dissected. […] These nanoparticles can potentially eliminate the need for expensive spraying approach in aerosol delivery.

[6] = formed in cold saline, FIG. 4E, FIG. 5
[7] = formed in cold saline (~0.9% NaCl), solvent injection, FF ~50 mg/mL, YF ~5 mg/mL
[8] = formed in cold saline, FF ~50 mg/mL, YF ~5 mg/mL
[9] = self-assembled in cold deionized water

- particle stability [1, 6]: ≥ 5 days
Molecule: CC(C)[C@H](N)C(=O)N1CCC[C@H]1C(=O)NCC(=O)N[C@@H](Cc1ccc(O)cc1)C(=O)NCC(=O)O [Y, VPGYG] (H-VPGYG-OH)
- viability [2]: > 80%

- average hydrodynamic diameter [3, 7]: 600 nm
- polydispersity index (PDI) [3, 8]: 0.07
- average hydrodynamic diameter [3, 9]: ~900 nm
- polydispersity index (PDI) [3, 9]: 0.33
- time particles stable before disaggregation [1]: about 2 hours
- particle stability [1, 6]: at least 5 days
- fraction of each dye encapsulated [4]: 20-30%
- time high fluorescence levels detected and maintained in vivo ([5]; Alexa 750 encapsulated, FIG. 11): at least 2 hours
Molecule: CC(C)[C@H](N)C(=O)N1CCC[C@H]1C(=O)NCC(=O)N[C@@H](Cc1ccc(O)cc1)C(=O)NCC(=O)N[C@H](C(=O)N1CCC[C@H]1C(=O)NCC(=O)N[C@@H](Cc1ccccc1)C(=O)NCC(=O)O)C(C)C [YF, VPGYGVPGFG] (H-VPGYGVPGFG-OH)
- viability [2]: > 80%
- tissue distribution: lungs ([5]; 0.5-2.0 hours): greater deposition of the nanoparticles in the lungs
- tissue distribution: brain / blood-brain-barrier ([5]; fluorescence in brain): cross the blood-brain-barrier and deposit in the brain

- size distribution (monodispersity) relative to other substituted peptides ([3]; DMSO stock ~380 mg/mL injected in cold saline ~2-4 °C, final ~25 mg/mL, FIG. 14): more monodisperse
Molecule: IPGYG

Molecule: VPGFGVPGFG [FF]
- average hydrodynamic diameter [3, 7]: ~191 nm
- polydispersity index (PDI) [3, 8]: 0.18
- polydispersity index (PDI) [3, 9]: 0.27
- time particles stable before disaggregation [1]: about 2 hours
- particle stability ([1]; formed in cold saline (~0.9% NaCl), cold precipitation method): ~1 days

Molecule: VPGFGVPGWG [FW]
- particle stability compared to FF and YF constructs [1]: did not show a significant increase in stability

Molecule: VPGFGVPGYG [FY]
- particle stability compared to FF and YF constructs [1]: did not show a significant increase in stability

Molecule: VPGWGVPGFG [WF]
- particle stability compared to FF and YF constructs [1]: did not show a significant increase in stability
